Data as given in publication PMC3646166, “Comparison of Aqueous and 1-Octanol Solubility as well as Liquid–Liquid Distribution of Acyclovir Derivatives and Their Complexes with Hydroxypropyl-β-Cyclodextrin” (Journal of Solution Chemistry, 2013).
In brackets after ≈: the same amount, converted by molar mass. Like-named read-outs stand apart in the source and are kept apart here.

Experiments:
[1] = Extraction experiments, 1-octanol-water partition coefficient; format: physicochemical; conditions: 25 °C, read-out: Partition coefficient 1-octanol–water, P oc/w (converted)
Protocol: The equipment described above was also used for the determination of the 1-octanol-water partition coefficients. […] The partition coefficient was evaluated as:1 Poc/w=Coc/Cw where C oc and C w are the molar concentrations of the solute in the 1-octanol and water phases, respectively. The correctness of the P oc/w value of each compound was verified by checking the mass balance of the starting amount of the substance and the total amount of the substance partitioned between the two phases.

[2] = Solubility in buffered cyclodextrin solutions (excess method of Higuchi and Connors); format: physicochemical; set-up: Stability constant K s of HP-β-CD complex: unit not given here; conditions: for Correlation parameter a (Eq. 2, Cs = a + b·CCD) / Correlation parameter b (Eq. 2, Cs = a + b·CCD): buffered HP-β-CD solutions
Protocol: Solubilities of the studied compounds was ensured according to the excess method of Higuchi and Connors. […] An excess amount of compounds 4-9 and 11-12 was added to 1.5 mL of aqueous phosphate buffer (concentration of buffer was equal 0.067 mol·dm^-3) solutions, (pH = 5.5 or 7.0) containing various concentration of HP-β-CD. The cyclodextrin concentration changed in the range of 10^-3 to 2 × 10^-2 mol·dm^-3. The suspensions were shaken in screw-capped plastic vials in a water bath thermostat with the volume of 60 dm^3 (home made apparatus by IChF PAN) at 25 and 37 °C. After 7 days equilibrium was reached and then the suspensions were centrifuged and the absorbance of the studied compounds was measured by UV-Vis spectrophotometry using a Shimadzu UV 2401 PC Spectrometer equipped with a thermostatically controlled cell compartment. During the measurement of absorbance, a buffered-solution of HP-β-CD, of the same concentration as in the studied solution, was always put as the reference. The average values of at least three independent determinations of the absorbance were used for calculation of the concentrations of the particular acyclovir derivatives. […] The main reason for the low solubility of tricyclic acyclovir derivatives with aromatic groups in water is the high hydrophobicity of these substituents. Use of cyclodextrins, which can include aromatic groups into their cavity, may enhance the aqueous solubility of such compounds. For this purpose we used several cyclodextrins and hydroxypropyl-β-cyclodextrin was chosen as being more efficient for complexating the tricyclic acyclovir derivatives. The investigations were performed, for chosen compounds, in various cyclodextrin HP-β-CD, buffered solutions (pH = 5.5 and 7.0) at 25 and 37 °C. […] Values of the correlation parameters a and b for tricyclic acyclovir derivatives complexed by cyclodextrin are presented in Table 3. […] The stability constants of the inclusion complexes between HP-β-CD and acyclovir derivatives have been calculated according to the Higuchi-Connors method using:3 K=b/C0(1-b) where C 0 is the solubility of the sample in solutions without cyclodextrin, obtained by determination of saturated solution concentration of acyclovir derivative solutions. […] These two values can differ, but in our study are very close to each other.

[3] = Solubility in water or 1-octanol (saturated solutions, UV-Vis); format: physicochemical; conditions: for solubility: thermodynamic from solid, water
Protocol: The sample of substance examined (10 mg or 80 mg for 6-Me-TACV) was placed in a glass ampoule and double-distilled, deionized water (Millipore, Elix 5 purifier), or pure anhydrous 1-octanol (Sigma 99 %) was added. To attain thermodynamic equilibrium, the solute and the solvent were mixed continuously for a minimum of 4 days at a speed of 25 rpm. After the experiment was completed, the sample was centrifuged at 40,000 rpm for 40 min at 25 ± 0.1 °C, the supernatant liquid was collected, diluted, and its concentration determined with a UV–Vis (Varian Carry IE) spectrophotometer. The experiments were repeated at least three times for each solubility.

[4] = set-up: method as in earlier work; conditions: human body ref 1; cited from earlier work
[5] = 25 °C (Table 1), read-out: Solubility in water, C w
[6] = water saturated with 1-octanol, 25 °C, read-out: Solubility in water saturated with 1-octanol, C woc
[7] = 35 °C, read-out: Aqueous solubility, C w
[8] = 45 °C, read-out: Aqueous solubility, C w

Compound: O=c1c2ncn(COCCO)c2nc2[nH]c(-c3ccc(-c4ccccc4)cc3)cn12 [Compound 9]
- logP at 2 days [1]: 0.491
- Correlation parameter a (Eq. 2, Cs = a + b·CCD) ([2]; pH = 5.5, 25 °C): 2.18 × 10^−4
- Correlation parameter b (Eq. 2, Cs = a + b·CCD) ([2]; pH = 5.5, 25 °C): 2.12 × 10^−2
- Correlation parameter a (Eq. 2, Cs = a + b·CCD) ([2]; pH = 5.5, 37 °C): 5.03 × 10^−4
- Correlation parameter b (Eq. 2, Cs = a + b·CCD) ([2]; pH = 5.5, 37 °C): 2.98 × 10^−2
- Correlation parameter a (Eq. 2, Cs = a + b·CCD) ([2]; pH = 7.0, 25 °C): 2.65 × 10^−4
- Correlation parameter b (Eq. 2, Cs = a + b·CCD) ([2]; pH = 7.0, 25 °C): 2.84 × 10^−2
- Correlation parameter a (Eq. 2, Cs = a + b·CCD) ([2]; pH = 7.0, 37 °C): 5.95 × 10^−4
- Stability constant K s of HP-β-CD complex ([2]; pH = 5.5, 25 °C): 100 (±8)
- Stability constant K s of HP-β-CD complex ([2]; pH = 5.5, 37 °C): 61 (±5)
- Stability constant K s of HP-β-CD complex ([2]; pH = 7, 25 °C): 110 (±6) dm·mol^−1
- Stability constant K s of HP-β-CD complex ([2]; pH = 7, 37 °C): 68 (±4)
- Solubility ratio in 1-octanol and water, C oc/C w ([3]; 25 °C): 8.90
- Solubility ratio in 1-octanol saturated with water and water saturated with 1-octanol, C ocw/C woc ([3]; 25 °C): 3.10
- solubility [3, 5]: 0.229 mM (≈ 91.9 µg/mL)
- solubility [3, 6]: 0.583 mM (≈ 234 µg/mL)
- solubility [3, 7]: 0.554 mM (≈ 222 µg/mL)
- solubility [3, 8]: 0.658 mM (≈ 264 µg/mL)

Compound: Nc1nc2c(ncn2COCCO)c(=O)[nH]1 [Compound 1, 9-[(2-hydroxyethoxy)methyl] guanine, reference compound]
- logP at 2 days [1]: -1.44
- solubility [3, 5]: 8.07 mM (≈ 1820 µg/mL)
- solubility [3, 6]: 7.44 mM (≈ 1680 µg/mL)
- solubility [3, 7]: 16.2 mM (≈ 3650 µg/mL)
- solubility [3, 8]: 19.7 mM (≈ 4440 µg/mL)

Compound: O=c1c2ncn(COCCO)c2nc2[nH]ccn12 [Compound 4, 3,9-dihydro-3-[(2-hydroxyethoxy)methyl]-9-oxo-5H-imidazol[1,2-a]purine]
- logP at 2 days [1]: -0.86
- Correlation parameter a (Eq. 2, Cs = a + b·CCD) ([2]; pH = 5.5, 25 °C): 2.64 × 10^−3
- Correlation parameter b (Eq. 2, Cs = a + b·CCD) ([2]; pH = 5.5, 25 °C): 1.98 × 10^−2
- Correlation parameter a (Eq. 2, Cs = a + b·CCD) ([2]; pH = 5.5, 37 °C): 5.15 × 10^−3
- Correlation parameter b (Eq. 2, Cs = a + b·CCD) ([2]; pH = 5.5, 37 °C): 2.72 × 10^−2
- Correlation parameter a (Eq. 2, Cs = a + b·CCD) ([2]; pH = 7.0, 25 °C): 2.48 × 10^−3
- Correlation parameter b (Eq. 2, Cs = a + b·CCD) ([2]; pH = 7.0, 25 °C): 2.05 × 10^−2
- Correlation parameter a (Eq. 2, Cs = a + b·CCD) ([2]; pH = 7.0, 37 °C): 4.79 × 10^−3
- Correlation parameter b (Eq. 2, Cs = a + b·CCD) ([2]; pH = 7.0, 37 °C): 2.56 × 10^−2
- Stability constant K s of HP-β-CD complex ([2]; pH = 5.5, 25 °C): 8.0 (±1) dm·mol^−1
- Stability constant K s of HP-β-CD complex ([2]; pH = 5.5, 37 °C): 6.0 (±1) dm·mol^−1
- Stability constant K s of HP-β-CD complex ([2]; pH = 7, 25 °C): 8.0 (±1) dm·mol^−1
- Stability constant K s of HP-β-CD complex ([2]; pH = 7, 37 °C): 6.0 (±1) dm·mol^−1
- Solubility ratio in 1-octanol and water, C oc/C w ([3]; 25 °C): 0.046
- Solubility ratio in 1-octanol saturated with water and water saturated with 1-octanol, C ocw/C woc ([3]; 25 °C): 0.157
- solubility [3, 5]: 3.07 mM (≈ 765 µg/mL)
- solubility [3, 6]: 2.72 mM (≈ 678 µg/mL)
- solubility [3, 7]: 5.91 mM (≈ 1470 µg/mL)
- solubility [3, 8]: 6.75 mM (≈ 1680 µg/mL)

Compound: O=c1c2ncn(COCCO)c2nc2[nH]c(-c3ccc4ccccc4c3)cn12 [Compound 12]
- logP at 2 days [1]: 0.549
- Correlation parameter a (Eq. 2, Cs = a + b·CCD) ([2]; pH = 5.5, 25 °C): 2.99 × 10^−5
- Correlation parameter b (Eq. 2, Cs = a + b·CCD) ([2]; pH = 5.5, 25 °C): 0.88 × 10^−2
- Correlation parameter a (Eq. 2, Cs = a + b·CCD) ([2]; pH = 5.5, 37 °C): 3.37 × 10^−5
- Correlation parameter b (Eq. 2, Cs = a + b·CCD) ([2]; pH = 5.5, 37 °C): 0.93 × 10^−2
- Correlation parameter a (Eq. 2, Cs = a + b·CCD) ([2]; pH = 7.0, 25 °C): 3.05 × 10^−5
- Correlation parameter b (Eq. 2, Cs = a + b·CCD) ([2]; pH = 7.0, 25 °C): 0.94 × 10^−2
- Correlation parameter a (Eq. 2, Cs = a + b·CCD) ([2]; pH = 7.0, 37 °C): 4.29 × 10^−5
- Correlation parameter b (Eq. 2, Cs = a + b·CCD) ([2]; pH = 7.0, 37 °C): 1.29 × 10^−2
- Stability constant K s of HP-β-CD complex ([2]; pH = 5.5, 25 °C): 297 (±7)
- Stability constant K s of HP-β-CD complex ([2]; pH = 5.5, 37 °C): 279 (±9)
- Stability constant K s of HP-β-CD complex ([2]; pH = 7, 25 °C): 311 (±9)
- Stability constant K s of HP-β-CD complex ([2]; pH = 7, 37 °C): 305 (±9)
- Solubility ratio in 1-octanol and water, C oc/C w ([3]; 25 °C): 4.37
- Solubility ratio in 1-octanol saturated with water and water saturated with 1-octanol, C ocw/C woc ([3]; 25 °C): 3.58
- solubility [3, 5]: 0.166 mM (≈ 62.3 µg/mL)
- solubility [3, 6]: 0.191 mM (≈ 71.7 µg/mL)
- solubility [3, 7]: 0.256 mM (≈ 96.1 µg/mL)
- solubility [3, 8]: 0.265 mM (≈ 99.5 µg/mL)

Compound: CC(C)[C@H](N)C(=O)OCCOCn1cnc2c(=O)[nH]c(N)nc21 [valacyclovir]
- Absorption relative to application of acyclovir [4]: four times higher

Compound: Cc1cn2c(=O)c3ncn(COCCO)c3nc2[nH]1 [Compound 5]
- logP at 2 days [1]: -0.688
- Solubility ratio in 1-octanol and water, C oc/C w ([3]; 25 °C): 0.173
- Solubility ratio in 1-octanol saturated with water and water saturated with 1-octanol, C ocw/C woc ([3]; 25 °C): 0.274
- solubility [3, 5]: 18.7 mM (≈ 4920 µg/mL)
- solubility [3, 6]: 13.1 mM (≈ 3450 µg/mL)
- solubility [3, 7]: 26.6 mM (≈ 7000 µg/mL)
- solubility [3, 8]: 32.4 mM (≈ 8530 µg/mL)
